# Test results: patent publication US9850183B2, “Conjugates derived from non-steroidal anti-inflammatory drugs and methods of use thereof in imaging” (Reiley Pharmaceuticals, Inc., priority 2014, dated 2017)
# Like-named read-outs stand apart in the source and are kept apart here.
# Columns and labels:
# [1] = target: T1, human COX-2 (Homo sapiens, UniProt P35354); assay: COX-2 enzyme assay (EIA kit, PGF2α readout); type: biochemical
# T1 construct: purchased Cayman Chemical Co., Ann Arbor, Mich., USA 701080
# T1 sequence (P35354 18-604): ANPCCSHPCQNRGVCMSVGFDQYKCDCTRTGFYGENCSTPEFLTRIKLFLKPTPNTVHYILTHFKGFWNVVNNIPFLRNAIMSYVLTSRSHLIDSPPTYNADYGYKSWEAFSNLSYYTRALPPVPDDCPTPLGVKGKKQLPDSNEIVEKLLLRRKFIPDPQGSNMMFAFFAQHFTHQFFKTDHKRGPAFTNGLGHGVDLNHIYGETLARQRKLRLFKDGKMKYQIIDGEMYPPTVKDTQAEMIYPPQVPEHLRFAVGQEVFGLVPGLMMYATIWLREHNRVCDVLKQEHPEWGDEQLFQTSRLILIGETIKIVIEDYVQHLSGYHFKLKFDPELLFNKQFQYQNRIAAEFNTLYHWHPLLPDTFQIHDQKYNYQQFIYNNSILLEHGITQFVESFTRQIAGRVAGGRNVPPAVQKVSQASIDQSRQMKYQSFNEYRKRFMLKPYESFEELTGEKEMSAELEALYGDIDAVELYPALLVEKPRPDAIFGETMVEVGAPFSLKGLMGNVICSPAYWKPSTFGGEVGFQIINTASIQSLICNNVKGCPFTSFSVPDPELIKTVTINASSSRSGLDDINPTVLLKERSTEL
# Description: The ability of compounds to inhibit ovine COX-1 and human COX-2 was determined using a commercially available enzyme immunoassay (EIA) kit (catalog no. 701090 (COX-1); 701080 (COX-2) Cayman Chemical Co., Ann Arbor, Mich., USA) according to the manufacturer's protocol. COX catalyzes the first step in the biosynthesis of AA to PGH2. PGF2α, produced from PGH2 by reduction with stannous chloride, was measured by EIA (ACE™ competitive EIA, Cayman Chemical, Ann Arbor, Mich., USA). Briefly, to a series of supplied reaction buffer solutions [960 μl 0.1 M Tris-HCl (pH 8.0) containing 5 mM EDTA and 2 mM phenol] with either COX-1 or COX-2 (10 μl) enzyme in the presence of heme (10 μl), 10 μl of various concentrations of test drug solutions were added. These solutions were incubated for 15 min at 37° C. and subsequently 10 μl AA solution (100 μM) was added. The COX reaction was stopped by the addition of 30 μl stannus chloride after 2 min, mixed immediately, supernatants were 2000 fold diluted. The produced PGF2α was measured by EIA. This assay is based on the competition between PGs and a PG-acetylcholinesterase conjugate (PG tracer) for a limited amount of PG antiserum. The amount of PG tracer that is able to bind to the PG antiserum is inversely proportional to the concentration of PGs in the wells since the concentration of the PG tracer is held at a constant while the concentration of PGs varies. The specific antiserum-PG complex bound to a mouse anti-rabbit IgG that had been previously attached to the well. The plate was washed to remove any unbound reagents and 200 μl Ellman's reagent (5,5′-dithiobis-(2-nitrobenzoic acid), which contains the substrate to acetylcholine esterase, was added to the well. The product of this enzymatic reaction generates a distinct yellow color that absorbs at 406 nm. The intensity of this color, determined by spectrophotometry, is proportional to the amount of PG tracer bound to the well, which is inversely proportional to the amount of PGs present in the well during the incubation. Percent inhibition was calculated by the comparison of the compounds treated to the various control incubations.
# (§1) Dose-response curves were generated using XLFit (IDBS, Surrey, UK) or Prism (GraphPad Software, La Jolla, Calif., US) to calculate IC50 values for each compound tested.
# [2] = target: T2, COX-2 (Mus musculus, UniProt Q05769); assay: Cell-based COX-2 assay (PGE2 in LPS/IFN-g stimulated RAW264.7 cells); conditions: RAW264.7 murine macrophages, 1 μg/ml LPS and 10 U/ml IFN-g for 7 h, PGE2 readout
# T2 construct: endogenous in cells; host or cells: RAW264.7 murine macrophages, stimulated with LPS and IFN-g
# T2 sequence (Q05769 18-604): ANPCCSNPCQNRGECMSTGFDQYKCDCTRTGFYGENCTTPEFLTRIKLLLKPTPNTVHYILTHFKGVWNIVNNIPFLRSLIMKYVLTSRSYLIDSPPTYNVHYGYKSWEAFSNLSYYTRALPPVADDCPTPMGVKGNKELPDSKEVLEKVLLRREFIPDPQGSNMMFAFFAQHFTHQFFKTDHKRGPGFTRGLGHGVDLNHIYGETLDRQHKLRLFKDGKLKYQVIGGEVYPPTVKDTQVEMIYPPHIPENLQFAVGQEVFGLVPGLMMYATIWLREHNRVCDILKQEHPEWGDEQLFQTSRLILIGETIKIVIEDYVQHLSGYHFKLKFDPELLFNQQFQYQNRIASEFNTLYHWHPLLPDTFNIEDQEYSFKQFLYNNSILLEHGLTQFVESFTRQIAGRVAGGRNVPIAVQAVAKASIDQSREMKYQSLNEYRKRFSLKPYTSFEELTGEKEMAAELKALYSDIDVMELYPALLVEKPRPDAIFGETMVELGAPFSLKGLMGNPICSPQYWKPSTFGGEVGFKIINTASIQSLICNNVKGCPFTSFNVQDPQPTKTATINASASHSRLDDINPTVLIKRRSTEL
# Description: RAW264.7 murine macrophages were obtained from the Cell Bank of Shanghai Institute of Biochemistry and Cell Biology, Chinese Academy of Sciences (Shanghai, China) and cultured in Dulbecco's modified Eagle's medium containing 100 U/ml penicillin and 100 μg/ml streptomycin at 37° C. in 5% CO2.
# RAW264.7 cells were plated at a density of 2.5×10^5/ml cells in a 96-well plate with 0.1 ml of culture medium per well and cultured overnight. The cells were pre-incubated for 30 min with various doses of compounds and stimulated for 7 h with 1 μg/ml LPS and 10 U/ml IFN-g. The cell culture supernatants were collected immediately following treatment and centrifuged at 1,000 rpm for 5 min to remove the particulate matter. PGE2 was determined using a Prostaglandin E2 assay kit (catalog no. 62P2APEB; Cisbio Co.,). 10 μL of cell supernatant was transferred to a 384-well low volume plate (e.g. Corning® 3544), 5 μL of PGE2-d2 was added, followed by 5 μL anti-PGE2 Cryptate as a negative control. Replace the standard by 10 μL of diluent and PGE2-d2 by 5 μL of reconstitution buffer, Cal0 (for positive control), replace the standard by 10 μL of diluent. Incubate at 4° C. overnight. After centrifuging at 1,000 rpm for 1 min, the dual fluorescence emissions of 615 and 665 nm with a 320 nm excitation were measured using an Envision plate reader (Perkin Elmer, Shelton, Conn.). The results are expressed as the ratio of 665 nm/615 nm emissions.
# as §1
# [3] = human COX-2 enzyme, EIA, 15 min pre-incubation at 37° C., read-out: COX-2 IC50 (μM) enzyme
SMILES,"IC50 [1, 3]",IC50 [2],IC50 [1]
COc1ccc2c(c1)c(CC(=O)NCCCCNC(=O)C[N]1C(=O)C[N]3C(=O)C[N]4C(=O)C[S][Re]143=[O])c(C)n2C(=O)c1ccc(Cl)cc1 [Compound 23],12 µM,–,–
COc1ccc2c(c1)c(CC(=O)NCCCCCCNC(=O)C[N]1C(=O)C[N]3C(=O)C[N]4C(=O)C[S][Re]143=[O])c(C)n2C(=O)c1ccc(Cl)cc1 [Compound 27],0.6 µM,12.7 µM,–
Cc1c(CC(=O)O)c2cc(OCCCCNC(=O)C[N]3C(=O)C[N]4C(=O)C[N]5C(=O)C[S][Re]354=[O])ccc2n1C(=O)c1ccc(Cl)cc1 [Compound 35],–,–,1.6 µM
Cc1c(CC(=O)O)c2cc(OCCCCCCNC(=O)C[N]3C(=O)C[N]4C(=O)C[N]5C(=O)C[S][Re]354=[O])ccc2n1C(=O)c1ccc(Cl)cc1 [Compound 39],–,–,1.1 µM
CCOC(=O)C1C[S][Re]23(=[O])[S]CC(C(=O)NCCOCCOCCNC(=O)Cc4c(C)n(C(=O)c5ccc(Cl)cc5)c5ccc(OC)cc45)[N]2CC[N]13 (stereo not shown) [Compound 178],0.2 µM,1.8 µM,–
CCOC(=O)C1C[S][Re]23(=[O])[S]CC(C(=O)NCCCCCCNC(=O)Cc4c(C)n(C(=O)c5ccc(Cl)cc5)c5ccc(OC)cc45)[N]2CC[N]13 (stereo not shown) [Compound 181],1 µM,1.5 µM,–
CCOC(=O)C1C[S][Re]23(=[O])[S]CC(C(=O)NCCCCCCCNC(=O)Cc4c(C)n(C(=O)c5ccc(Cl)cc5)c5ccc(OC)cc45)[N]2CC[N]13 (stereo not shown) [Compound 182],0.8 µM,0.6 µM,–
CCOC(=O)C1C[S][Re]23(=[O])[S]CC(C(=O)NCCCCCCCCNC(=O)Cc4c(C)n(C(=O)c5ccc(Cl)cc5)c5ccc(OC)cc45)[N]2CC[N]13 (stereo not shown) [Compound 183],0.4 µM,0.7 µM,–
COc1ccc2c(c1)c(CC(=O)NCCCCCCNC(=O)C1C[S][Re]34(=[O])[S]CC(C(=O)OC(C)C)[N]3CC[N]14)c(C)n2C(=O)c1ccc(Cl)cc1 (stereo not shown) [Compound 185],1.2 µM,0.5 µM,–
COc1ccc2c(c1)c(CC(=O)NCCNC(=O)[c-]1cccc1)c(C)n2C(=O)c1ccc(Cl)cc1.[C-]#[O+].[C-]#[O+].[C-]#[O+].[Re+] [Compound 243],0.5 µM,0.7 µM,–
COc1ccc2c(c1)c(CC(=O)NCCOCCNC(=O)[c-]1cccc1)c(C)n2C(=O)c1ccc(Cl)cc1.[C-]#[O+].[C-]#[O+].[C-]#[O+].[Re+] [Compound 244],> 30 µM,1.5 µM,–
COc1ccc2c(c1)c(CC(=O)NCCCCCCCCNC(=O)[c-]1cccc1)c(C)n2C(=O)c1ccc(Cl)cc1.[C-]#[O+].[C-]#[O+].[C-]#[O+].[Re+] [Compound 247],0.2 µM,2.6 µM,–
COc1ccc2c(c1)c(CC(=O)NCCOCCOCCOCCNC(=O)[c-]1cccc1)c(C)n2C(=O)c1ccc(Cl)cc1.[C-]#[O+].[C-]#[O+].[C-]#[O+].[Re+] [Compound 248],0.2 µM,> 30 µM,–
COc1ccc2c(c1)c(CC(=O)NCc1ccc(CNC(=O)[c-]3cccc3)cc1)c(C)n2C(=O)c1ccc(Cl)cc1.[C-]#[O+].[C-]#[O+].[C-]#[O+].[Re+] [Compound 249],1.1 µM,4.4 µM,–
COc1ccc2c(c1)c(CC(=O)NCCOCCOCCNC(=O)c1ccc[cH-]1)c(C)n2C(=O)c1ccc(Cl)cc1.[C-]#[O+].[C-]#[O+].[C-]#[O+].[Re+] [Compound 251],0.3 µM,> 30 µM,–
COc1ccc2c(c1)c(CC(=O)NCCCC[N+]13CC[S][Re-]14(=[O])[S]CC[N]4C(=O)C3)c(C)n2C(=O)c1ccc(Cl)cc1 (stereo not shown) [Compound 261],0.8 µM,1.8 µM,–
COc1ccc2c(c1)c(CC(=O)NCCOCC[N+]13CC[S][Re-]14(=[O])[S]CC[N]4C(=O)C3)c(C)n2C(=O)c1ccc(Cl)cc1 (stereo not shown) [Compound 262],–,1.7 µM,0.9 µM
COc1ccc2c(c1)c(CC(=O)NCCCCC[N+]13CC[S][Re-]14(=[O])[S]CC[N]4C(=O)C3)c(C)n2C(=O)c1ccc(Cl)cc1 (stereo not shown) [Compound 263],–,0.3 µM,0.3 µM
COc1ccc2c(c1)c(CC(=O)NCCCCCCCC[N+]13CC[S][Re-]14(=[O])[S]CC[N]4C(=O)C3)c(C)n2C(=O)c1ccc(Cl)cc1 (stereo not shown) [Compound 265],–,0.1 µM,2.1 µM
COc1ccc2c(c1)c(CC(=O)NCCCOCCC[N+]13CC[S][Re-]14(=[O])[S]CC[N]4C(=O)C3)c(C)n2C(=O)c1ccc(Cl)cc1 (stereo not shown) [Compound 266],0.6 µM,0.2 µM,–
COc1ccc2c(c1)c(CC(=O)NCCCOCC[N+]13CC[S][Re-]14(=[O])[S]CC[N]4C(=O)C3)c(C)n2C(=O)c1ccc(Cl)cc1 (stereo not shown) [Compound 267],> 30 µM,0.3 µM,–
COc1ccc2c(c1)c(CC(=O)NCCCC(C)(C)NC(=O)c1ccc[cH-]1)c(C)n2C(=O)c1ccc(Cl)cc1.[C-]#[O+].[C-]#[O+].[C-]#[O+].[Re+] [Compound 311],–,0.4 µM,–
COc1ccc2c(c1)c(CC(=O)NCCCCCC(C)(C)NC(=O)c1ccc[cH-]1)c(C)n2C(=O)c1ccc(Cl)cc1.[C-]#[O+].[C-]#[O+].[C-]#[O+].[Re+] [Compound 313],–,0.2 µM,–
COc1ccc2c(c1)c(CC(=O)NCCCNCCC[N+]13CC[S][Re-]14(=[O])[S]CC[N]4C(=O)C3)c(C)n2C(=O)c1ccc(Cl)cc1 (stereo not shown) [Compound 320],–,5 µM,–
COc1ccc2c(c1)c(CCNC(=O)CC[N+]13CC[S][Re-]14(=[O])[S]CC[N]4C(=O)C3)c(C)n2C(=O)c1ccc(Cl)cc1 (stereo not shown) [Compound 356],–,1.6 µM,–
